Results reported in the NIST ThermoML archive (doi:10.1016/j.tca.2016.04.023).
Where “and” joins values, the source holds several entries; their conditions need not be identical. Identical values can stand only once. ± gives the expanded uncertainty stated by the source.

Key:
[1] = Molar enthalpy of transition or fusion; details: Crystal; DSC
[2] = Crystal; DTA

## O.O.O.O.O.O.[Ca+2].[Cl-].[Cl-] [calcium chloride hexahydrate]
[1]
  Molar enthalpy of transition or fusion: 40.5 kJ/mol and 38.8 kJ/mol
[2]
  Normal melting temperature: 28.70 ± 1.1 °C and 28.30 ± 1.1 °C
